Reference: PMC6274539, “Photoactivatable Caged Prodrugs of VEGFR-2 Kinase Inhibitors” (Molecules, 2016)
Like-named read-outs stand apart in the source and are kept apart here.

Columns and labels:
PC-3 cells = experiment: cellular growth (proliferation) assay, resazurin; type: cell-based
Protocol: Growth assays on VEGFR-2 dependent PC-3 cells were performed.
PC-3 cells were purchased from CLS Cell Lines Service GmbH (Eppelheim, Germany). The cells were grown in DMEM:Hams F12 (1:1) medium with 5% FCS. PC-3 cells were incubated in a 5% CO2 humidified atmosphere at 37 °C.
The cells were grown in cell flasks until approximately 90% confluence and then seeded to give 13000 cells in 100 μL per well into 96-well CulturePlates™ (Perkin Elmer). In addition to the test plates, one plate was prepared for reference measurement at day zero. All plates were incubated for 24 h at 37 °C in a humidified atmosphere with 5% CO2. Compounds 1, 3, 4, and 5 were dissolved in 100% DMSO (v/v) and added to the test plates. The final DMSO concentration in the assay was 0.5% (v/v). Viability of the cells in the day zero control plates were determined on the same day without adding any compounds. For viability measurement the resazurin assay was used. The shift in the fluorescence signal was measured at the LS55 Fluorescence spectrometer (Perkin Elmer). For the photoactivation experiments the test plates were irradiated at 365 nm for 5 min (LED source: 8× Nichia NCSU033B, Sahlmann Photochemical Solutions, 50%, 1.1 kW/m^2). Test plates were incubated for further 48 h and cell viability was defined as described above. Measured raw data was converted into percent of cell growth by using the high control (0.5% DMSO (v/v) without compound) and the day zero control. For dose-response studies, 11 different concentrations of compounds were tested in duplicates. IC50 values were calculated using the 4-parameter logarithmic fit option of GraphPad Prism 5.

CAMKKb = CAMKKb (Homo sapiens, UniProt Q96RR4); experiment: kinase profiling, radioactive filter binding assay; type: biochemical; details: 0.1 µM compound, assay duplicates; read-out: residual activity of CAMKKb, mean percentage activity
Protocol: (§1) The used method was a radioactive filter binding assay using ^33P ATP, for details see references. The substances were dissolved in DMSO at tested concentration of 0.1 µM. The mean percentage residual kinase activity and standard deviations of assay duplicates were determined. Analyses were performed by the International Center for Kinase Profiling at the University of Dundee, UK.

CDK2-Cyclin A = CDK2-Cyclin A (Homo sapiens, UniProt P24941); experiment: kinase profiling, radioactive filter binding assay; type: biochemical; details: 0.1 µM compound, assay duplicates; read-out: residual activity of CDK2-Cyclin A, mean percentage activity
Protocol: as §1

EPH-B3 = EPH-B3 (Homo sapiens, UniProt P54753); experiment: kinase profiling, radioactive filter binding assay; type: biochemical; details: 0.1 µM compound, assay duplicates; read-out: residual activity of EPH-B3, mean percentage activity
Protocol: as §1

ERK2 = ERK2 (Homo sapiens, UniProt P28482); experiment: kinase profiling, radioactive filter binding assay; type: biochemical; details: 0.1 µM compound, assay duplicates; read-out: residual activity of ERK2, mean percentage activity
Protocol: as §1

IGF1-R = IGF1-R (Homo sapiens, UniProt P08069); experiment: kinase profiling, radioactive filter binding assay; type: biochemical; details: 0.1 µM compound, assay duplicates; read-out: residual activity of IGF1-R, mean percentage activity
Protocol: as §1

IKK epsilon (14231) = IKK epsilon (14231) (Homo sapiens, UniProt Q14164); experiment: kinase profiling, radioactive filter binding assay; type: biochemical; details: 0.1 µM compound, assay duplicates; read-out: residual activity of IKK epsilon (14231), mean percentage activity
Protocol: as §1

NEK6 = NEK6 (Homo sapiens, UniProt Q9HC98); experiment: kinase profiling, radioactive filter binding assay; type: biochemical; details: 0.1 µM compound, assay duplicates; read-out: residual activity of NEK6, mean percentage activity
Protocol: as §1

PIM1 = PIM1 (Homo sapiens, UniProt P11309); experiment: kinase profiling, radioactive filter binding assay; type: biochemical; details: 0.1 µM compound, assay duplicates; read-out: residual activity of PIM1, mean percentage activity
Protocol: as §1

PKA = PKA (Homo sapiens, UniProt P17612); experiment: kinase profiling, radioactive filter binding assay; type: biochemical; details: 0.1 µM compound, assay duplicates; read-out: residual activity of PKA, mean percentage activity
Protocol: as §1

PKBb = PKBb (Homo sapiens, UniProt P31751); experiment: kinase profiling, radioactive filter binding assay; type: biochemical; details: 0.1 µM compound, assay duplicates; read-out: residual activity of PKBb, mean percentage activity
Protocol: as §1

PKC zeta = PKC zeta (Homo sapiens, UniProt Q05513); experiment: kinase profiling, radioactive filter binding assay; type: biochemical; details: 0.1 µM compound, assay duplicates; read-out: residual activity of PKC zeta, mean percentage activity
Protocol: as §1

PKCa = PKCa (Homo sapiens, UniProt P17252); experiment: kinase profiling, radioactive filter binding assay; type: biochemical; details: 0.1 µM compound, assay duplicates; read-out: residual activity of PKCa, mean percentage activity
Protocol: as §1

PLK1 = PLK1 (Homo sapiens, UniProt P53350); experiment: kinase profiling, radioactive filter binding assay; type: biochemical; details: 0.1 µM compound, assay duplicates; read-out: residual activity of PLK1, mean percentage activity
Protocol: as §1

S6K1 = S6K1 (Homo sapiens, UniProt P23443); experiment: kinase profiling, radioactive filter binding assay; type: biochemical; details: 0.1 µM compound, assay duplicates; read-out: residual activity of S6K1, mean percentage activity
Protocol: as §1

Src = Src (Homo sapiens, UniProt P12931); experiment: kinase profiling, radioactive filter binding assay; type: biochemical; details: 0.1 µM compound, assay duplicates; read-out: residual activity of Src, mean percentage activity
Protocol: as §1

VEG-FR = experiment: kinase profiling, radioactive filter binding assay; type: biochemical; details: 0.1 µM compound, assay duplicates
Protocol: as §1

PLK1 (Okadaic Acid) = PLK1 (Okadaic Acid) (Homo sapiens, UniProt P53350); experiment: kinase profiling, radioactive filter binding assay; type: biochemical; details: 0.1 µM compound, assay duplicates; read-out: residual activity of PLK1 (Okadaic Acid), mean percentage activity
Protocol: (§2) To compare the active inhibitors 1 and 3, a selectivity profile over 79 kinases was recorded. The residual kinase activities are presented as a heatmap (Figure 6, for raw data see Supplementary Table S1).
as §1, with “Compounds 1 and 3 were screened against 79 kinases. The used” for “The used”

SmMLCK = SmMLCK (Homo sapiens, UniProt Q15746); experiment: kinase profiling, radioactive filter binding assay; type: biochemical; details: 0.1 µM compound, assay duplicates; read-out: residual activity of SmMLCK, mean percentage activity
Protocol: as §2
as §1, with “Compounds 1 and 3 were screened against 79 kinases. The used” for “The used”

[1] = Homo sapiens, PC-3, light or radiation study, 48 h, no UV irradiation, cell growth after 48 h, read-out: GI50 without Irradiation
[2] = Homo sapiens, PC-3, light or radiation study, irradiated at 365 nm, 5 min, 1.1 kW/m^2, cell growth after 48 h, read-out: GI50 after Irradiation

Chain of Src (P12931 whole entry): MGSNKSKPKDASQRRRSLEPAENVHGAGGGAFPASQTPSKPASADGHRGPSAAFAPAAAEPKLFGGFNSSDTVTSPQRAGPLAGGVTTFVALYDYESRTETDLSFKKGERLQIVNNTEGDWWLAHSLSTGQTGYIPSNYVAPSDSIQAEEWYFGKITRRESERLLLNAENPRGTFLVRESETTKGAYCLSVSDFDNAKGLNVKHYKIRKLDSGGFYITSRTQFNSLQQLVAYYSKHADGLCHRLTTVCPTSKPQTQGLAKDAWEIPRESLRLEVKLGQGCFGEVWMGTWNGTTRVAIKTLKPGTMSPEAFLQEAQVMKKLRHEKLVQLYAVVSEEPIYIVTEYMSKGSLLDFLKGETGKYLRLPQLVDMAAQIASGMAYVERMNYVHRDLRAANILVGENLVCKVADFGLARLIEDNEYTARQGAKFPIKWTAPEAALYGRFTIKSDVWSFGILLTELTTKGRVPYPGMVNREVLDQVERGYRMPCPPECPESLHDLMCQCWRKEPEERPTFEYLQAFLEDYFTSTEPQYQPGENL
Chain of EPH-B3 (P54753 34-998): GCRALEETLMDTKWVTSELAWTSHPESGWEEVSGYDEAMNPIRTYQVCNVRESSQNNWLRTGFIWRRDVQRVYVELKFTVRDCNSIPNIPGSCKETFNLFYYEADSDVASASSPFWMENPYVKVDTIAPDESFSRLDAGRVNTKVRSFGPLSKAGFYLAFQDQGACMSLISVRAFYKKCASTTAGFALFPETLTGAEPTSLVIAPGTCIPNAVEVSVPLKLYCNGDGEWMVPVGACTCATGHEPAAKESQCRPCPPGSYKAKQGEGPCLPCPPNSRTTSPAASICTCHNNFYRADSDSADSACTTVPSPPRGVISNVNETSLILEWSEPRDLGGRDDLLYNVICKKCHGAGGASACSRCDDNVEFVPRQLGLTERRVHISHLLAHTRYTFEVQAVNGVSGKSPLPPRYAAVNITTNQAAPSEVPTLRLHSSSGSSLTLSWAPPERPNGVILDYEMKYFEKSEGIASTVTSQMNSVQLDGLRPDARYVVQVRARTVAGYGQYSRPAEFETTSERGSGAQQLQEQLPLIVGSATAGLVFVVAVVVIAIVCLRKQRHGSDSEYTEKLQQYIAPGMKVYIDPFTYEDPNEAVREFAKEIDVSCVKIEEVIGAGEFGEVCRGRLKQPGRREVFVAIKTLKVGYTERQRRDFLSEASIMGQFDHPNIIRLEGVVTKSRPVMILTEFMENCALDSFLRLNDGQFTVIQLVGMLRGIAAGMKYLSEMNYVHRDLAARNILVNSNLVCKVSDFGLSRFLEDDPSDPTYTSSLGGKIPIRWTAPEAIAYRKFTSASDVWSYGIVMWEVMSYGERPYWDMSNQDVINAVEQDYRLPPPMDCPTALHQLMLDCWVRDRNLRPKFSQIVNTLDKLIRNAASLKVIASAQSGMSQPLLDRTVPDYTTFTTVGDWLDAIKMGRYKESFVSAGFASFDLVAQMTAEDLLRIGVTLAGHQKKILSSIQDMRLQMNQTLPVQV
Chain of CAMKKb (Q96RR4 whole entry): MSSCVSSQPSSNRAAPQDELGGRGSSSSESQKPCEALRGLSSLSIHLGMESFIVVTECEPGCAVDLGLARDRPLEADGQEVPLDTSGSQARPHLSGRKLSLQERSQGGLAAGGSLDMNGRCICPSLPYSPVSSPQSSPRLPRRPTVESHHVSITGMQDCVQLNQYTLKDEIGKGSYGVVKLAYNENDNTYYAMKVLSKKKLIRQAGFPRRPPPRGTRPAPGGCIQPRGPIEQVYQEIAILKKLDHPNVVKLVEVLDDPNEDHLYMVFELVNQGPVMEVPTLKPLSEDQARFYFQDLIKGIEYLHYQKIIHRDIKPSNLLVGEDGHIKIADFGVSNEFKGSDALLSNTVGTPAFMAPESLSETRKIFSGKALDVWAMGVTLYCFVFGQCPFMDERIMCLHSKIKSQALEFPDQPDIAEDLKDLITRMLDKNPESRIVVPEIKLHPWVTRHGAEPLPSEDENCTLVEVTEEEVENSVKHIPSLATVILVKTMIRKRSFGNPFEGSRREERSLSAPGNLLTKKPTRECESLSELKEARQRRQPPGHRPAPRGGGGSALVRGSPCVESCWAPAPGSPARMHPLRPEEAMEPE
Chain of ERK2 (P28482 whole entry): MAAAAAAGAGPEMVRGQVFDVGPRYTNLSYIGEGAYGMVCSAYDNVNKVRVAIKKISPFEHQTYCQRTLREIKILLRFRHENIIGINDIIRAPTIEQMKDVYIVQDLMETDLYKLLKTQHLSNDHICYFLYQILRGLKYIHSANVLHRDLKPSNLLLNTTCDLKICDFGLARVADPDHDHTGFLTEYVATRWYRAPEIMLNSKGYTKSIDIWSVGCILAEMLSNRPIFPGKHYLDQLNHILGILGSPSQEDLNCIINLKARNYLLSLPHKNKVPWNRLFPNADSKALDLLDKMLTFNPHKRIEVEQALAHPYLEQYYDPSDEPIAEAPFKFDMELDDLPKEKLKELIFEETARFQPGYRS
Chain of PIM1 (P11309 whole entry): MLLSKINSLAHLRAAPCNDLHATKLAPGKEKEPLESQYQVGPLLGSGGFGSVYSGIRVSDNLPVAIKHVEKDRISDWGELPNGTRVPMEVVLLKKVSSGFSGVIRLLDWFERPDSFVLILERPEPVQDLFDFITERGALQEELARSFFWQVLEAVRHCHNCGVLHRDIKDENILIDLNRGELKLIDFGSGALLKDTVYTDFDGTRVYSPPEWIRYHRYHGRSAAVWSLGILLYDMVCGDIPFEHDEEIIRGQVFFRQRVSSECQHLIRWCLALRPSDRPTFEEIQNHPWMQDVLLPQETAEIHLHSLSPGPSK
Chain of SmMLCK (Q15746 923-1914): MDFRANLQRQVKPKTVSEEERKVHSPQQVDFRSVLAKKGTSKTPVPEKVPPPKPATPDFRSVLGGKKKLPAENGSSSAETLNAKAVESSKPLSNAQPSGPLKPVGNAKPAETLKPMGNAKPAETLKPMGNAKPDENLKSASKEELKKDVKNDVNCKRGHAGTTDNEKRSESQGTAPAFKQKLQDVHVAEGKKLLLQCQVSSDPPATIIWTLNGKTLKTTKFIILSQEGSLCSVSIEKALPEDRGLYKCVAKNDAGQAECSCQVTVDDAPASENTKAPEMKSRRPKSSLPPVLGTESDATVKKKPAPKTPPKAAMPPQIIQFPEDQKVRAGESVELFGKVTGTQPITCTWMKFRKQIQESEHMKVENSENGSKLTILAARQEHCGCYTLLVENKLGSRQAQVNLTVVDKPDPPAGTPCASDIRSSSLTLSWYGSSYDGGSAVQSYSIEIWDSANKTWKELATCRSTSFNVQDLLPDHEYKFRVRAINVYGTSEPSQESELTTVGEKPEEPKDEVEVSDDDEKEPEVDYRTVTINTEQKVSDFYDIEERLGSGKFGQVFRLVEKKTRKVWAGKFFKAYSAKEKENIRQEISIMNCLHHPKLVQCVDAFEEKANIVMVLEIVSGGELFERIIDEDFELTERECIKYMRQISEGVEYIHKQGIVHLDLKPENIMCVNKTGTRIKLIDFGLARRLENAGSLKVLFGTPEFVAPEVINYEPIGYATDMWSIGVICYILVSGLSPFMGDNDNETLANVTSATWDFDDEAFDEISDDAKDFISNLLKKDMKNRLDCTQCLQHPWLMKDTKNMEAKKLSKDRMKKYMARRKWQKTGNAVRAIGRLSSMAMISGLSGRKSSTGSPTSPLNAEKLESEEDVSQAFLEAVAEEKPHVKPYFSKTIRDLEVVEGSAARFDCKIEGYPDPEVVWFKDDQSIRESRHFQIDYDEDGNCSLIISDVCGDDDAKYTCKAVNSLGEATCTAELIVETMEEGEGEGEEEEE
Chain of S6K1 (P23443 whole entry): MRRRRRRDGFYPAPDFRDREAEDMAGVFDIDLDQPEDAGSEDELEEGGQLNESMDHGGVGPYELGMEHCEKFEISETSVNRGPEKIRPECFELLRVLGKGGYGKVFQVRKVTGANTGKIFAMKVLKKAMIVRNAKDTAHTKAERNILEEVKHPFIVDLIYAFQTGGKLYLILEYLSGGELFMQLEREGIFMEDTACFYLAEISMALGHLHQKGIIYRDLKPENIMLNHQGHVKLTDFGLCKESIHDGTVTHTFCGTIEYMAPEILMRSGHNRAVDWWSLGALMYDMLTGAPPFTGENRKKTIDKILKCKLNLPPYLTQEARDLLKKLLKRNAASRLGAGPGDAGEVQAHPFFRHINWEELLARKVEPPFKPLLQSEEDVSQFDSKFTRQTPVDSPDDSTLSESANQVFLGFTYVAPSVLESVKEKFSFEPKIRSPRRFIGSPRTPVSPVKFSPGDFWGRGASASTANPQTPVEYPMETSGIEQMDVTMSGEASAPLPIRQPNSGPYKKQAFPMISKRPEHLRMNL

| Compound | GI50 (PC-3 cells; [1]) [nM] | GI50 (PC-3 cells; [2]) [nM] | remaining activity at 0.1 µM (CAMKKb) [%] | remaining activity at 0.1 µM (CDK2-Cyclin A) [%] | remaining activity at 0.1 µM (EPH-B3) [%] | remaining activity at 0.1 µM (ERK2) [%] | remaining activity at 0.1 µM (IGF1-R) [%] | remaining activity at 0.1 µM (IKK epsilon (14231)) [%] | remaining activity at 0.1 µM (NEK6) [%] | remaining activity at 0.1 µM (PIM1) [%] | remaining activity at 0.1 µM (PKA) [%] | remaining activity at 0.1 µM (PKBb) [%] | remaining activity at 0.1 µM (PKC zeta) [%] | remaining activity at 0.1 µM (PKCa) [%] | remaining activity at 0.1 µM (PLK1) [%] | remaining activity at 0.1 µM (S6K1) [%] | remaining activity at 0.1 µM (Src) [%] | residual activity of VEG-FR, mean percentage activity (VEG-FR) [%] | remaining activity at 0.1 µM (PLK1 (Okadaic Acid)) [%] | remaining activity at 0.1 µM (SmMLCK) [%] | other results |
| --- | --- | --- | --- | --- | --- | --- | --- | --- | --- | --- | --- | --- | --- | --- | --- | --- | --- | --- | --- | --- | --- |
| COc1cc(C2=C(c3c[nH]c4ccccc34)C(=O)NC2=O)cc(OC)c1OC [Compound 1, 3-(1H-Indol-3-yl)-4-(3,4,5-trimethoxyphenyl)-1H-pyrrole-2,5-dione] | 6400 | 2900 | 81 | 59 | 104 | 94 | 90 | 85 | 96 | 14 | 93 | 98 | 102 | 113 | 79 | 65 | 81 | 10 | 85 | 60 | – |
| COc1cc2c3c(c4c5ccccc5[nH]c4c2c(OC)c1OC)C(=O)NC3=O [Compound 3, 5,6,7-Trimethoxybenzo[a]pyrrolo[3,4-c]carbazole-1,3(2H,8H)-dione] | 200 | 380 | 49 | 28 | 133 | 93 | 65 | 94 | 104 | 5 | 90 | 91 | 98 | 90 | 49 | 28 | 86 | 37 | 83 | 30 | GI50 (PC-3 cells; irradiated at 365 nm, 5 min, 1.1 kW/m^2, cell growth after 48 h, read-out: GI50 after Irradiation): 400 nM |
